Consider two molecules from US20250302813A1, “RECOMBINANT METHIONINASE IN THE TREATMENT OF CANCER” (ANTICANCER INC, priority 2024, published 2025).

In data set [1] the test system is human colorectal cancer cell line. Particulars: in vitro; cited from earlier work.
The test system of data set [2] is HCT-116 human colon cancer cell line. In words: Cell viability testing of HCT-116 cells (Cell Counting Kit-8, WST-8 reagent). Type of data set: cell-based. Particulars: for IC50: Homo sapiens. How it is done:
Cell culture: The HCT-116 human colon cancer cell line was acquired from the American Type Culture Collection (Manassas, VA, USA). The cells were grown in Dulbecco's […] medium (DMEM) with 10% fetal bovine serum and 100 IU/ml of penicillin/streptomycin.
Cell viability testing: HCT-116 cells were cultivated at subconfluence overnight in Dulbecco's modified Eagle's medium in 96-well plates (1.0×10^3 cells per well). The following day, HCT-116 cells were treated with concentrations of rMETase ranging from 0.125 to 8 U/ml or regorafenib ranging from 0.25 μM to 16 μM. Regorafenib was purchased from MedChemExpress (Monmouth Junction, NJ, USA). After 72 h of treatment, cell viability was assessed using the Cell Counting Kit-8 (Dojindo Laboratory, Kumamoto, Japan) with the WST-8 reagent.
ImageJ version 1.53 (National Institutes of Health, Bethesda, MD, USA) was applied to calculate IC50 values and sensitivity curves. After calculating the half-maximal inhibitory concentration (IC50) for rMETase and regorafenib, the […]. concentrations of both drugs were used to determine the synergistic efficacy of the combination of the drugs. Finally, the IC50 study was repeated for regorafenib on HCT-116 cells treated in combination with the IC50 concentration of rMETase to examine whether methionine restriction increased the efficacy of regorafenib. Each experiment was carried out in triplicate.
Statistics: GraphPad Prism 9.4.0 (GraphPad Software, Inc., San Diego, CA, USA) was used to conduct all statistical analyses. Tukey's multiple comparison test was performed for the parametric test of comparison between groups. All data are presented as the mean and standard deviation. The significance level was p≤0.05.
Background: Tetrazolium assays rely on reduction of a dye to a coloured formazan, in cell work by metabolically active cells.

For data set [3] the following is noted: patients; oral regorafenib; cited from earlier work.

Read-outs that look alike come from different tables or passages of the source.

Consider `CNC(=O)c1cc(Oc2ccc(NC(=O)Nc3ccc(Cl)c(C(F)(F)F)c3)c(F)c2)ccn1` [regorafenib, 4-[4-[[4-chloro-3-(trifluoromethyl)phenyl]carbamoylamino]-3-fluorophenoxy]-N-methylpyridine-2-carboxamide], for which the “Increase of intracellular S-adenosyl-L-methionine (SAM) level compared to the control” value in data set [1] was 34.5%. Also, the IC50 in data set [2] (HCT-116, 72 h, addition of rMETase at 0.61 U/ml (its IC50), 72 h, WST-8, read-out: IC50 of regorafenib in combination with rMETase) came to 1460 nM; in data set [2] (HCT-116, 72 h, regorafenib alone, 72 h treatment, WST-8, read-out: IC50 of regorafenib on HCT-116 cells) it was 2200 nM; in data set [2] (HCT-116, regorafenib alone, read-out: IC50 of regorafenib alone on HCT-116 cells (printed in U/ml)), 2260 nM. In data set [3], the “Time to appearance of toxicity after the start of treatment (severe skin rash, diarrhea, hypertension, fatigue)” value is 3 to 4 days.

Consider “rMETase: recombinant methioninase produced by fermentation of recombinant Escherichia coli transformed with the methioninase gene from Pseudomonas putida”, for which, in data set [2] (rMETase alone, 72 h treatment, WST-8), the “IC50 of rMETase on HCT-116 cells” value stood at 0.61 U/ml.
